Data on 27 compounds can be found in patent US11339156B2, “3-(1H-pyrazol-4-yl)pyridine allosteric modulators of the M4 muscarinic acetylcholine receptor” (Merck Sharp & Dohme Corp., priority 2017, dated 2022).

The first experiment deals with T1, human M4 muscarinic acetylcholine receptor (Homo sapiens, UniProt P08173).
T1 construct: expressed in transfected cells
T1 sequence (P08173 1-479): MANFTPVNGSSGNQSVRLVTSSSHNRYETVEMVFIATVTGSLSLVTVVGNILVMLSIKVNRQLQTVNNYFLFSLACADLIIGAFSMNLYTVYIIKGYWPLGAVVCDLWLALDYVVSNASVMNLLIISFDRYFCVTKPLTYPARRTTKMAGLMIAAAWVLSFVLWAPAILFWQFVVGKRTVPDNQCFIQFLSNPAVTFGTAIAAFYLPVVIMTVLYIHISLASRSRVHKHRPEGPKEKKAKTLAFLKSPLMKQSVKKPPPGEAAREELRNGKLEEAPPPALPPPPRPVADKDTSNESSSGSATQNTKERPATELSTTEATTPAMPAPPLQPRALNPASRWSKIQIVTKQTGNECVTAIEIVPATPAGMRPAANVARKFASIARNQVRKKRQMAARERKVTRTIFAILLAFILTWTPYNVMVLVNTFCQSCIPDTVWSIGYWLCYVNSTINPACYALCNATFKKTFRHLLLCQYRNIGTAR
Put plainly: human FLIPR-based M4 PAM assay (CHO-K1 cells with human M4 receptor and Gαqi5, calcium dye fluorescence). The format is cell-based. The note with it: inflection point of 4 parameter logistic fit; acetylcholine added at 20% of maximum response; read-out: M4PAM IP. The essentials:
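CHO-K1 cells were loaded with calcium dye at 37 °C for ~1 h. Fluorescence (ex 470–495/em 515–575 nm) was read for 4 min after test compound at increasing concentrations, then 3.5 min after acetylcholine at an EC20; sometimes a third addition at EC70 followed. The value is the inflection point of a 4-parameter logistic fit.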
Turning to `CC(C)CCn1cc(-c2ccc(Cl)nc2-c2ccc3c(c2)C(=O)N(Cc2ccccn2)C3)cn1` [Example 112, 6-{6-chloro-3-[1-(3-methylbutyl)-1H-pyrazol-4-yl]pyridin-2-yl}-2-(pyridin-2-ylmethyl)-2,3-dihydro-1H-isoindol-1-one], the EC50 stood at 60.8 nM.
With `CC(C)CCn1cc(-c2ccc(Cl)nc2-c2ccc3c(c2)C(=O)N(Cc2ccccc2F)C3)cn1` [Example 113, 6-{6-chloro-3-[1-(3-methylbutyl)-1H-pyrazol-4-yl]pyridin-2-yl}-2-(2-fluorobenzyl)-2,3-dihydro-1H-isoindol-1-one], the EC50 turned out to be 54 nM.
`CC(C)CCn1cc(-c2ccc(Cl)nc2-c2ccc3c(c2)C(=O)N(Cc2ccc(O)cc2)C3)cn1` [Example 114, 6-{6-chloro-3-[1-(3-methylbutyl)-1H-pyrazol-4-yl]pyridin-2-yl}-2-(4-hydroxybenzyl)-2,3-dihydro-1H-isoindol-1-one]: the EC50 stood at 22.8 nM.
For `CN1Cc2ccc(-c3nc(Cl)ccc3-c3cnn(CC4CCCCC4)c3)cc2C1=O` [Example 115, 6-{6-chloro-3-[1-(cyclohexylmethyl)-1H-pyrazol-4-yl]pyridin-2-yl}-2-methyl-2,3-dihydro-1H-isoindol-1-one], the EC50 amounted to 31.7 nM.
Still for that read-out and setting: as for `CC(C)CCn1cc(-c2cccnc2-c2ccc3c(c2)C(=O)N(C2CCC2)C3)cn1` [Example 116, 2-cyclobutyl-6-{3-[1-(3-methylbutyl)-1H-pyrazol-4-yl]pyridin-2-yl}-2,3-dihydro-1H-isoindol-1-one], the figure is 84.6 nM.
Consider `CC(C)(C)Cn1cc(-c2ccc(C#N)nc2-c2ccn3c(Cl)cnc3c2)cn1` [Example 117, 6-(3-chloroimidazo[1,2-a]pyridin-7-yl)-5-(1-neopentyl-1H-pyrazol-4-yl)picolinonitrile], for which the EC50 came out at 33.4 nM.
Same read-out and setting: as for `Cc1cn2ccc(-c3nc(C#N)ccc3-c3cnn(CC4(F)CCC4)c3)cc2n1` [Example 118, 5-(1-((1-fluorocyclobutyl)methyl)-1H-pyrazol-4-yl)-6-(2-methylimidazo[1,2-a]pyridin-7-yl)picolinonitrile], the figure is 30.7 nM; as for `Cc1cn2ccc(-c3nc(C#N)ccc3-c3cnn(CCC(C)(C)F)c3)cc2n1` [Example 119, 5-[1-(3-fluoro-3-methylbutyl)-1H-pyrazol-4-yl]-6-(2-methylimidazo[1,2-a]pyridin-7-yl)pyridine-2-carbonitrile], 55.9 nM; as for `Cc1nc2cc(-c3ncc(F)cc3-c3cnn(CCC(C)(C)F)c3)ccc2n1C` [Example 120, 5-(5-fluoro-3-(1-(3-fluoro-3-methylbutyl)-1H-pyrazol-4-yl)pyridin-2-yl)-1,2-dimethyl-1H-benzo[d]imidazole], 401 nM.
`Cc1cn2ccc(-c3nc(C#N)ccc3-c3cnn(CC(C)(C)F)c3)cc2n1` [Example 122, 5-(1-(2-fluoro-2-methylpropyl)-1H-pyrazol-4-yl)-6-(2-methylimidazo[1,2-a]pyridin-7-yl)picolinonitrile]: the EC50 was determined as 78.1 nM.
For `C#Cc1ccc(-c2cnn(CC(C)(C)C)c2)c(-c2ccn3cc(C)nc3c2)n1` [Example 123, 7-(6-ethynyl-3-(1-neopentyl-1H-pyrazol-4-yl)pyridin-2-yl)-2-methylimidazo[1,2-a]pyridine], the EC50 stood at 62.3 nM.
For `N#Cc1ccc(-c2cnn(CC(F)C3CC3)c2)c(-c2ccn3ccnc3c2)n1` (stereo not drawn) [Example 124, 5-(1-(2-cyclopropyl-2-fluoroethyl)-1H-pyrazol-4-yl)-6-(imidazo[1,2-a]pyridin-7-yl)picolinonitrile], the EC50 turned out to be 60.5 nM.
As for `Cc1cn2ccc(-c3nc(C#N)ccc3-c3cnn(CC(C)(O)C(F)(F)F)c3)cc2n1` (stereo not drawn) [Example 125, 6-(2-methylimidazo[1,2-a]pyridin-7-yl)-5-(1-(3,3,3-trifluoro-2-hydroxy-2-methylpropyl)-1H-pyrazol-4-yl)picolinonitrile], the EC50 is 161 nM.
Still for that read-out and setting: as for `Cc1cn2ccc(-c3nc(C#N)ccc3-c3cnn(CC(C)C(F)(F)F)c3)cc2n1` (stereo not drawn) [Example 126, 6-(2-methylimidazo [1,2-a]pyridin-7-yl)-5-(1-(3,3,3-trifluoro-2-methylpropyl)-1H-pyrazol-4-yl)picolinonitrile], the figure is 39.1 nM; as for `Cc1cn2ccc(-c3nc(C#N)ccc3-c3cnn(CC(C)(C)CO)c3)cc2n1` [Example 127, 5-(1-(3-hydroxy-2,2-dimethylpropyl)-1H-pyrazol-4-yl)-6-(2-methylimidazo[1,2-a]pyridin-7-yl)picolinonitrile], 139 nM.
As to `Cc1nc2cc(-c3nc(C#N)ccc3-c3cnn(C[C@]4(F)C[C@@H](F)C4)c3)ccc2n1C` [Example 128, 5-(1-(((1s,3s)-1,3-difluorocyclobutyl)methyl)-1H-pyrazol-4-yl)-6-(1,2-dimethyl-1H-benzo[d]imidazol-5-yl)picolinonitrile], the EC50 stood at 48 nM.
Consider `Cc1nc2cc(-c3nc(C#N)ccc3-c3cnn(C[C@]4(F)C[C@H](F)C4)c3)ccc2n1C` [Example 129, 5-(1-(((1r,3r)-1,3-difluorocyclobutyl)methyl)-1H-pyrazol-4-yl)-6-(1,2-dimethyl-1H-benzo[d]imidazol-5-yl)picolinonitrile], for which the EC50 stood at 114 nM.
As to `Cc1nc2cc(-c3ncccc3-c3cnn(CC4(F)CC(F)(F)C4)c3)ccn2n1` [Example 130, 2-methyl-7-(3-(1-((1,3,3-trifluorocyclobutyl)methyl)-1H-pyrazol-4-yl)pyridin-2-yl)-[1,2,4]triazolo[1,5-a]pyridine], the EC50 is 381 nM.
Same read-out and setting: the value for `Cc1nc(-c2ccc3c(c2)nc(C)n3C)c(-c2cnn(CC(C)(C)C(F)(F)F)c2)cc1F` [Example 131, 5-(5-fluoro-6-methyl-3-(1-(3,3,3-trifluoro-2,2-dimethylpropyl)-1H-pyrazol-4-yl)pyridin-2-yl)-1,2-dimethyl-1H-benzo[d]imidazole] was 77.3 nM; that for `CC(C)(Cn1cc(-c2ccc(C(N)=O)nc2-c2ccn3ccnc3c2)cn1)C(F)(F)F` [Example 132, 6-(imidazo[1,2-a]pyridin-7-yl)-5-(1-(3,3,3-trifluoro-2,2-dimethylpropyl)-1H-pyrazol-4-yl)picolinamide] was 249 nM.
Same read-out and setting: as for `CC1(Cn2cc(-c3ccc(C#N)nc3-c3ccn4ccnc4c3)cn2)CC1(F)F` (stereo not drawn) [Example 134, 5-(1-((2,2-difluoro-1-methylcyclopropyl)methyl)-1H-pyrazol-4-yl)-6-(imidazo[1,2-a]pyridin-7-yl)picolinonitrile], the figure is 57.5 nM.
Same read-out and setting: as for `CC(C)(C)Cn1ncc(-c2ccc(C#N)nc2-c2ccn3ccnc3c2)c1F` [Example 135, 5-[1-(2,2-dimethylpropyl)-5-fluoro-1H-pyrazol-4-yl]-6-imidazo[1,2-a]pyridin-7-ylpyridine-2-carbonitrile], the figure is 36.5 nM; as for `Cc1ccc(-c2cnn(CCC(C)C)c2C#N)c(-c2ccn3ccnc3c2)n1` [Example 136, 4-(2-imidazo[1,2-a]pyridin-7-yl-6-methylpyridin-3-yl)-1-(3-methylbutyl)-1H-pyrazole-5-carbonitrile], 741 nM; as for `CSc1cnc(-c2ccc3c(c2)C(=O)NC3)c(-c2cnn(CCC(C)C)c2)c1` [Example 137, 6-(3-(1-isopentyl-1H-pyrazol-4-yl)-5-(methylthio)pyridin-2-yl)isoindolin-1-one], 345 nM.
Regarding `Cc1cc(-c2cnn(CC3(C(F)(F)F)CC3)c2)c(-c2ccn3ccnc3c2)nc1C#N` [Example 138, 6-imidazo[1,2-a]pyridin-7-yl-3-methyl-5-(1-{[1-(trifluoromethyl)cyclopropyl]methyl}-1H-pyrazol-4-yl)pyridine-2-carbonitrile], the EC50 was found to be 59.9 nM.
Same read-out and setting: as for `Cc1cc(-c2cnn(CC3(C(F)(F)F)CC3)c2)c(-c2ccn3ccnc3c2)nc1C` [Example 139, 7-[5,6-dimethyl-3-(1-{[1-(trifluoromethyl)cyclopropyl]methyl}-1H-pyrazol-4-yl)pyridin-2-yl]imidazo[1,2-a]pyridine], the figure is 162 nM.

Still in this experiment, the particulars now being: read-out: HuM4PAM.
Consider `CC(C)(F)Cn1cc(-c2ccc(C#N)nc2-c2ccn3ccnc3c2)cn1` [Example 121, 5-(1-(2-fluoro-2-methylpropyl)-1H-pyrazol-4-yl)-6-(imidazo[1,2-a]pyridin-7-yl)picolinonitrile], for which the EC50 is 107 nM.
